{"source": "paper PMC7482410", "about": "(ACS Omega, 2020)", "key": {"[1]": {"target": "murine CCL2 (mCCL2-P8A, MCP-1) (Mus musculus, UniProt P10148, P31A)", "sequence (P10148 24-99 P31A limits assumed)": "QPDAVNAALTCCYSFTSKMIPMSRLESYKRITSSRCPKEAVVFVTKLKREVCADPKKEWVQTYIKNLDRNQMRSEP", "assay": "intrinsic Trp fluorescence quenching titration", "type": "binding"}, "[2]": {"target": "murine CCL2 (mCCL2-WT, MCP-1) (Mus musculus, UniProt P10148)", "sequence (P10148 24-99 limits assumed)": "as the sequence (P10148 24-99 P31A limits assumed) above, with A8P counted along it", "assay": "intrinsic Trp fluorescence quenching titration", "type": "binding"}, "[3]": {"target": "human CCL2 (hCCL2-P8A, MCP-1) (Homo sapiens, UniProt P13500, P31A)", "sequence (P13500 24-99 P31A)": "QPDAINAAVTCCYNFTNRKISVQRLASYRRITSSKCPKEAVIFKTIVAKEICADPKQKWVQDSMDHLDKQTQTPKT", "assay": "intrinsic Trp fluorescence quenching titration", "type": "binding"}, "[4]": {"target": "human CCL2 (hCCL2-WT, MCP-1) (Homo sapiens, UniProt P13500)", "sequence (P13500 24-99)": "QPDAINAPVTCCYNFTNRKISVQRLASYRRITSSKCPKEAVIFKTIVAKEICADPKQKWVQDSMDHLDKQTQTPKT", "assay": "intrinsic Trp fluorescence quenching titration", "type": "binding"}, "[5]": {"target": "DDAH (Pseudomonas aeruginosa) (UniProt Q9I4E3)", "conditions": "cited from earlier work"}, "[6]": {"target": "murine CCL2 wild type (monocyte chemoattractant protein-1) (murine) (UniProt P10148)", "assay": "NMR translational diffusion"}}, "data": [{"molecule": "O=C(O)[C@H]1O[C@@H](Oc2cc3oc(-c4ccccc4)cc(=O)c3c(O)c2O)[C@H](O)[C@@H](O)[C@@H]1O", "note": "[BA]", "values": [{"measurement": "Kd", "setting": "[1]", "result": "270 ± 20", "unit": "nM"}, {"measurement": "Kd", "setting": "[2]", "result": "290 ± 20", "unit": "nM"}, {"measurement": "Kd", "setting": "[3]", "result": "260 ± 20", "unit": "nM"}, {"measurement": "Kd", "setting": "[4]", "result": "250 ± 20", "unit": "nM"}]}, {"molecule": "DDAH (from UniProt Q9I4E3)", "values": [{"measurement": "Kd", "setting": "[5]", "result": 500, "unit": "nM"}]}, {"molecule": "murine CCL2 wild type (monocyte chemoattractant protein-1) (from UniProt P10148 24-148) (natural protein)", "values": [{"measurement": "stoichiometry N", "setting": "[6]", "result": 2}]}]}
